The Deep4Chem optical property database
Values belong to the compound of their own block, whether it stands above or below them.

Assay: solvent given as SMILES

SMILES: Cc1c(C)c(-c2cccnc2)c(C)c(C)c1B(c1c(C)c(C)c(-c2cccnc2)c(C)c1C)c1c(C)c(C)c(-c2cccnc2)c(C)c1C
absorption maximum (in ClCCl): 330 nm

SMILES: CCCCCCCCC1(CCCCCCCC)c2cc3c(cc2-c2sc(-c4ccc(/C=C5\SC(=S)N(CC)C5=O)c5nsnc45)cc21)C(CCCCCCCC)(CCCCCCCC)c1cc(-c2ccc(/C=C4\SC(=S)N(CC)C4=O)c4nsnc24)sc1-3
absorption maximum (in ClC(Cl)Cl): 652 nm

SMILES: CC(=O)C1=C(O)CC2Oc3c(C(C)=O)c(O)c(C)c(O)c3C2(C)C1=O (stereo not given)
absorption maximum (in ClC(Cl)Cl): 340 nm

SMILES: O=C1CC(=O)Nc2cc(Cl)ccc2N1
absorption maximum (in CS(C)=O): 298 nm

SMILES: CN(C)c1ccc(C2=Nc3sc4cc(C(F)(F)F)ccc4[n+]3[B-](F)(F)O2)cc1
absorption maximum (in C1CCOC1): 430 nm
absorption maximum (in CC#N): 427 nm
absorption maximum (in CC(C)=O): 431 nm
absorption maximum (in Cc1ccccc1): 428 nm
absorption maximum (in ClCCl): 431 nm

SMILES: c1cc2c3c(cccc3c1)C(N1CCOCCOCCOCCOCC1)=N2
absorption maximum (in CC#N): 427 nm

SMILES: C(#Cc1ccc2ncsc2c1)c1ccc(N(c2ccc(C#Cc3ccc4ncsc4c3)cc2)c2ccc(C#Cc3ccc4ncsc4c3)cc2)cc1
absorption maximum (in Cc1ccccc1): 380 nm

SMILES: O=c1ccc2cc3c(cc2o1)OCC3
absorption maximum (in CC(C)O): 333 nm
absorption maximum (in CCO): 333 nm
absorption maximum (in CCOCC): 330 nm
absorption maximum (in CO): 333 nm
absorption maximum (in O): 336 nm

SMILES: O=c1oc2ccccc2nc1-c1ccccc1
absorption maximum (in c1ccccc1): 332 nm

SMILES: CCOC(=O)c1cc(C(=O)OCC)c2cc(N(C)C)ccc2n1
absorption maximum (in CCO): 443 nm

SMILES: CC(C)(C)c1ccc2c(c1)c1cc(C(C)(C)C)ccc1n2-c1ccc(S(=O)(=O)c2ccc(-n3c4ccc(C(C)(C)C)cc4c4cc(C(C)(C)C)ccc43)cn2)nc1
absorption maximum (in Cc1ccccc1): 365.77 nm

SMILES: CC(=O)Nc1ccc(C2=C/C(=C\c3ccc([N+](=O)[O-])cc3)C(=O)O2)cc1
absorption maximum (in C1COCCO1): 438 nm

SMILES: COc1cc(N(CC(=O)[O-])CC(=O)[O-])c2nc(COc3cc(C)ccc3N(CC(=O)[O-])CC(=O)[O-])ccc2c1
absorption maximum (in O): 356 nm

SMILES: COC(=O)c1cc(=O)n(C)c2cc(-c3cc(OC)c(OC)c(OC)c3)sc12
absorption maximum (in CC#N): 398 nm
absorption maximum (in ClCCl): 400 nm

SMILES: COC(=O)C(Cc1ccc2oc(-c3ccncc3)nc2c1)NC(=O)OC(C)(C)C (stereo not given)
absorption maximum (in CC1CCCCC1): 307.12 nm
absorption maximum (in CC#N): 302.86 nm
absorption maximum (in CO): 306.08 nm

SMILES: CN(C)c1ccc2nc(/C=C/c3ccccc3)c(=O)oc2c1
absorption maximum (in C1CCCCC1): 438.5 nm
absorption maximum (in C1COCCO1): 453 nm
absorption maximum (in CC#N): 463 nm
absorption maximum (in CC(C)=O): 462 nm
absorption maximum (in CCCCCCC): 436 nm
absorption maximum (in CCO): 466 nm
absorption maximum (in CCOC(C)=O): 457 nm
absorption maximum (in CN(C)C=O): 469 nm
absorption maximum (in CS(C)=O): 475 nm
absorption maximum (in Cc1ccccc1): 459.5 nm
absorption maximum (in ClC(Cl)Cl): 467 nm
absorption maximum (in ClCCl): 467.5 nm

SMILES: O=C(O)C1=C/C(=C/C=[NH+]/c2ccc3c(C(F)(F)F)cc(=O)oc3c2)CC(C(=O)O)N1 (stereo not given)
absorption maximum (in O): 519 nm

SMILES: COc1ccc(N2c3cc(OC)ccc3N=c3cc4c(cc32)=Nc2cc(C(C)(C)C)cc(C(C)(C)C)c2O4)cc1
absorption maximum (in CC#N): 539 nm
absorption maximum (in CCCCCC): 562 nm
absorption maximum (in CO): 558 nm

SMILES: Cc1c(C)c(B(c2c(C)c(C)c(N3c4ccccc4Oc4ccccc43)c(C)c2C)c2c(C)c(C)c(N3c4ccccc4Oc4ccccc43)c(C)c2C)c(C)c(C)c1C#N
absorption maximum (in c1ccc([Si](c2ccccc2)(c2ccc(-n3c4ccccc4c4ccccc43)cc2)c2ccc(-n3c4ccccc4c4ccccc43)cc2)cc1): 408 nm

SMILES: Cc1cc(C)c(B(c2ccc(-n3c4ccccc4c4ccccc43)cc2)c2c(C)cc(C)cc2C)c(C)c1
absorption maximum (in Cc1ccccc1): 360 nm

SMILES: CCOC(=O)c1cc(C(=O)OCC)c2c(C)ccc(O)c2n1
absorption maximum (in CCO): 369 nm

SMILES: CCC1=C(C)C(=O)n2c1cc1c(C)c(CCC(=O)OC)c(C)n1c2=O
absorption maximum (in CC#N): 420 nm
absorption maximum (in CC(C)=O): 420 nm
absorption maximum (in CO): 424 nm
absorption maximum (in CS(C)=O): 425 nm
absorption maximum (in ClC(Cl)Cl): 427 nm
absorption maximum (in c1ccccc1): 420 nm

SMILES: O=P1(c2ccccc2)C(c2cc(C(F)(F)F)cc(C(F)(F)F)c2)=Cc2c3ccc4cccc5ccc(c6cc(-c7ccc(N(c8ccccc8)c8ccccc8)cc7)n1c26)c3c45 (stereo not given)
absorption maximum (in C1CCCCC1): 434 nm
absorption maximum (in C1CCOC1): 437 nm
absorption maximum (in C1COCCO1): 436 nm
absorption maximum (in CC#N): 434 nm
absorption maximum (in CC(C)=O): 435 nm
absorption maximum (in CO): 444 nm
absorption maximum (in Cc1ccccc1): 441 nm
absorption maximum (in ClC(Cl)Cl): 441 nm
absorption maximum (in ClCCl): 437 nm

SMILES: c1ccc(-c2c3c(c(-c4ccccc4)c4cc5ccccc5cc24)Cc2c(c(-c4ccccc4)c4cc5ccccc5cc4c2-c2ccccc2)C3)cc1
absorption maximum (in CC#N): 389 nm
absorption maximum (in CCCCCC): 388 nm
absorption maximum (in CO): 388 nm
absorption maximum (in Cc1ccccc1): 391 nm
absorption maximum (in ClCCl): 392 nm

SMILES: F[B-]1(F)OC(c2cccc(Br)c2)=Cc2c3ccccc3cc[n+]21
absorption maximum (in ClC(Cl)Cl): 399.5 nm

SMILES: CC1=CC(c2ccc(N(C)C)cc2)=[N+]2C1=Nc1c(C)cc(-c3ccc(N(C)C)cc3)n1[B-]2(F)F
absorption maximum (in C1CCOC1): 744 nm
absorption maximum (in CS(C)=O): 774 nm
absorption maximum (in Cc1ccccc1): 734 nm

SMILES: Cc1ccc2cc3cc(C)ncc3cc2c1
absorption maximum (in CCO): 383.73 nm

SMILES: CCCCOC(=O)c1cc(Cl)c2c3c(Cl)cc4c5c(cc(Cl)c(c6c(Oc7ccc(C(=O)OC)cc7)cc(C(=O)OCCCC)c1c26)c53)C(=O)N(c1c(C(C)C)cccc1C(C)C)C4=O
absorption maximum (in Cc1ccccc1): 507 nm

SMILES: O=C(O)c1ccc2cc3cc(C(=O)O)ccc3cc2c1
absorption maximum (in C1CCOC1): 409 nm
absorption maximum (in CN(C)C=O): 409 nm

SMILES: COc1cccc(OC)c1-c1c2ccc(=[N+]3CCN(C(=O)OC(C)(C)C)CC3)cc-2oc2cc(N3CCN(C(=O)OC(C)(C)C)CC3)ccc12
absorption maximum (in ClCCl): 555 nm

The remaining lines, values ahead:

absorption maximum (in CC#N): 521 nm
SMILES: CCCn1c2cccc3c2[c+]2c4c1cccc4n(CCC)c1cccc(c12)n3CCC

absorption maximum (in ClCCl): 343 nm
SMILES: ClP1(Cl)=N[P@](Cl)(Oc2ccc3ccc4cccc5ccc2c3c45)=N[P@@](Cl)(Oc2ccc3ccc4cccc5ccc2c3c45)=N1

absorption maximum (in ClCCl): 523 nm
SMILES: Cc1ccc(N(c2ccc(C)cc2)c2ccc(Oc3nnc(Cl)nn3)cc2)cc1

absorption maximum (in C1CCCCC1): 406 nm
SMILES: Cc1cc(C)c(B2c3cc(C(C)(C)C)ccc3-c3c(-c4ccccc4)ccc4cc(C(C)(C)C)cc2c34)c(C)c1

absorption maximum (in C1CCOC1): 487 nm
SMILES: CCCCCOc1cc2oc(=O)c3c4ccc(N(c5ccc(C)cc5)c5ccc(C)cc5)cc4c4ccc5cccc6c(c1)c2c3c4c56

absorption maximum (in C1CCOC1): 340 nm
SMILES: COc1ccc(-c2cc3ccccc3p2-c2ccccc2)cc1 (stereo not given)

absorption maximum (in C1CCCCC1): 581.5 nm
absorption maximum (in CCOC(C)=O): 576.5 nm
absorption maximum (in CO): 574.5 nm
SMILES: Cc1ccccc1C1=C2C=c3c(oc4ccc(F)cc34)=[N+]2[B-](F)(F)n2c1cc1c3cc(F)ccc3oc12

absorption maximum (in CC#N): 352 nm
SMILES: c1ccc2c(c1)ccc1oc3ccc4cc5oc6ccc7ccc8oc9ccc%10ccccc%10c9c8c7c6c5cc4c3c12

absorption maximum (in ClC(Cl)Cl): 396 nm
SMILES: CC(C)(C)c1ccc2oc3nc4oc5ccc(-n6c7ccccc7c(=O)c7ccccc76)cc5c4cc3c2c1

absorption maximum (in ClCCl): 342 nm
SMILES: CC1(C)c2ccccc2N(c2ccc(-c3nc(-c4ccccn4)n(-c4ccccc4)n3)cc2)c2ccccc21

absorption maximum (in CS(C)=O): 398 nm
SMILES: Cc1cccn2c1cc1c3ccccc3nc(-c3cccs3)c12

absorption maximum (in C1CCCCC1): 604.5 nm
absorption maximum (in CCOC(C)=O): 604.5 nm
SMILES: CC1=[N+]2C(=C(c3ccc(C=O)cc3)c3ccc(C)n3[B-]2(F)F)C=C1c1cc2n(c1)[B-](F)(F)[N+]1=CC=CC1=C2c1c(C)cc(C)cc1C

absorption maximum (in ClCCl): 386 nm
SMILES: O=C1c2cccc3c(C#CC#Cc4ccc5c6c(cccc46)C(=O)N(c4ccccc4)C5=O)ccc(c23)C(=O)N1c1ccccc1

absorption maximum (in ClCCl): 340 nm
SMILES: O=C1c2ccccc2-c2nc3ccccc3n21

absorption maximum (in C1CCOC1): 414 nm
SMILES: COc1cc2c(cc1-c1ccc(C=O)cc1)Cc1c3c(c4c(c1-2)-c1cc(OC)c(-c2ccc(C=O)cc2)cc1C4)C(=O)N(CCC(C)C)C3=O

absorption maximum (in ClCCl): 470 nm
SMILES: CCCCCc1c(C(=O)c2ccc3c4c(cccc24)-c2cccc4c2C3CC=C4)c2ccc3cccc4c5cccc6ccc1c(c65)c2c34 (stereo not given)

absorption maximum (in ClC(Cl)Cl): 634 nm
SMILES: F[B-]1(F)n2c(cc3c2-c2ccccc2CC3)C(c2ccc(I)cc2)=C2C=C3CCc4ccccc4C3=[N+]21

absorption maximum (in C1CCOC1): 342 nm
SMILES: c1ccc(-n2c(-c3c(-n4c5ccccc5c5ccccc54)cccc3-n3c4ccccc4c4ccccc43)nc3ccccc32)cc1

absorption maximum (in C1CCOC1): 370 nm
absorption maximum (in CC#N): 364 nm
absorption maximum (in CCO): 368 nm
absorption maximum (in CCOC(C)=O): 366 nm
absorption maximum (in CN(C)C=O): 358 nm
absorption maximum (in ClCCl): 374 nm
absorption maximum (in c1ccccc1): 372 nm
SMILES: O=C(c1ccc(N(c2ccccc2)c2ccccc2)cc1)[C@H]1[C@H](c2cccs2)C[C@](O)(c2ccccn2)C[C@]1(O)c1ccccn1

absorption maximum (in O): 299 nm
SMILES: Cc1cc(-c2ccc(-c3n(C)c4ccccc4[n+]3C)cc2)ccc1-c1ccc(-c2n(C)c3ccccc3[n+]2C)cc1

absorption maximum (in CC#N): 438 nm
SMILES: C(=C\c1nc(-c2ccccc2)c2ccccn12)/c1nc(-c2ccccc2)c2ccccn12

absorption maximum (in ClCCl): 339 nm
SMILES: CCCCn1c(-c2ccc(-c3nnc(-c4ccccc4)o3)cc2)nc(-c2ccccc2)c1-c1ccccc1

absorption maximum (in ClCCl): 324 nm
SMILES: C[SiH]1c2ccccc2-c2cc3c(cc21)-c1ccccc1[SiH]3C (stereo not given)

absorption maximum (in ClC(Cl)Cl): 722 nm
SMILES: Cc1ccc(/C2=c3\cc/c(o3)=C(\c3ccc(C)cc3)c3ccc([nH]3)-c3ccc4n3[B-](F)(F)[N+]3=C(C=CC3=C4c3ccco3)c3ccc2[nH]3)cc1

absorption maximum (in CO): 792 nm
SMILES: CC1(C)C(/C=C/C=C/C=C/C=C2/N(CCC(=O)O)c3ccc4ccccc4c3C2(C)C)=[N+](CCC(=O)O)c2ccc3ccccc3c21

absorption maximum (in C1CCOC1): 489 nm
SMILES: FC(F)(F)c1ccc(C2=CC3=c4cc(-c5ccc(C(F)(F)F)cc5)c5nc(C(F)(F)C(F)(F)C(F)(F)F)nc6c(-c7ccc(C(F)(F)F)cc7)cc(c4c65)C4=CC(c5ccc(C(F)(F)F)cc5)=C5N=C(C(F)(F)C(F)(F)C(F)(F)F)N=C2C5C43)cc1 (stereo not given)

absorption maximum (in ClC(Cl)Cl): 452 nm
SMILES: CCCCCCCCc1ccc(-c2ccc(-c3cc(-c4ccc(-c5ccc(CCCCCCCC)s5)c5nsnc45)c4ccc5c(-c6ccc(-c7ccc(CCCCCCCC)s7)c7nsnc67)cc(-c6ccc(-c7ccc(CCCCCCCC)s7)c7nsnc67)c6ccc3c4c65)c3nsnc23)s1
